From patent US8232414B2, “Polymorphic form of rotigotine and process for production” (UCB Pharma GmbH, priority 2007, dated 2012)

Key:
[1] = Solubility in EtOH at room temperature; assay type: physicochemical
[2] = Thermodynamic stability from DSC (melting point, enthalpy of fusion; Burger-Ramberger rules); assay type: physicochemical; conditions: heating rate 10° C./min, 30° C. to 140° C., Burger-Ramberger rules applied
Source text: Polymorph form (II) of rotigotine can be further characterized and distinguished from form (I) by differential scanning calorimetry (DSC). A DSC thermogram of form (II) is provided in FIG. 5, and was obtained using DSC techniques known to those of skill in the art. One of skill in the art would readily be able to determine the conditions necessary to obtain a DSC thermogram of form (II). A variety of differential scanning calorimeters are available to those of skill in the art and include the Differential Scanning Calorimeter of Mettler Toledo (DSC822e) using temperatures of about 25° C. to about 250° C., in particular about 30° C. to about 140° C. and temperature increases at various rates including 1° C./min, 10° C./min, 20° C./min, among other instruments and conditions. One skilled in the art would recognize that the peak positions in the DSC thermogram can vary depending upon kinetic factors such as, for example, heating rate and particle size. Thermal behavior investigations of rotigotine of polymorphic form (I) (batch 1608726) and of polymorphic form (II) (batch 7769396) were performed on a Mettler Toledo DSC system and on a TA instrument (Q-1000). The analyses were carried out with a heating rate of 10° C./min in pierced aluminum crucibles in a temperature range from 30° C. to 140° C.

Row | Compound | solubility in EtOH [1] | thermodynamic stability relative to form (I) [2] | thermodynamic stability relative to form (I) ([2]; listed as form (II)) | solubility in EtOH relative to polymorphic form (I) ([1]; form (II) versus form (I))
1 | CCCN(CCc1cccs1)[C@H]1CCc2c(O)cccc2C1 [polymorphic form (I), (−)-5,6,7,8-tetrahydro-6-[propyl-[2-(2-thienyl)ethyl]amino]-1-naphthalenol, reference compound] | about 500 mg/ml | – | – | –
2 | CCCN(CCc1cccs1)[C@H]1CCc2c(O)cccc2C1 [polymorphic form (II), (−)-5,6,7,8-tetrahydro-6-[propyl-[2-(2-thienyl)ethyl]amino]-1-naphthalenol] | 60 to 100 mg/mL | thermodynamically more stable than polymorphic form (I) at all considered temperatures | thermodynamically more stable than form (I) at any temperature considered | at least five times lower
